# From paper PMC10667816, “A Cell‐Penetrant Peptide Disrupting the Transcription Factor CP2c Complexes Induces Cancer‐Specific Synthetic Lethality” (Advanced Science, 2023)
# Where a SMILES comes first, the peptide text is derived from it.
# What was measured:
# [1] = system: hepatocellular carcinoma and breast cancer patient‐derived cancer cells; test: Sensitivity of patient‐derived cancer cells; type: cell-based, human; conditions: preliminary data
# Description: For primary cell culture, tumor tissue samples obtained from patients undergoing surgery were finely minced, washed with phosphate buffered saline (PBS) containing penicillin/streptomycin, and then treated with trypsin solution at 37 °C for up to 20 min. The resulting cell suspension was filtered through a strainer (BD Falcon, 352235). The filtered cells were maintained in EpiX media, which consists of keratinocyte serum free medium (KSFM; Gibco, 17005042) supplemented with 50 µg mL^−1 bovine pituitary extract (Gibco, 13028014), 5 ng mL^−1 human epidermal growth factor (EGF; Thermo Fisher, PHG0311L), 1 µM TGF beta inhibitor (A83‐01; Sigma–Aldrich, SML0788), 5 µM ROCK inhibitor (Y27632; Sigma–Aldrich, Y0503), and 3 µM isoproterenol (Sigma–Aldrich, I6504). The culture medium was refreshed daily. For organoid culture, portions of human tissue samples were separated and transported to the laboratory on ice within 1 h of removal from the patients in cold Hank's balanced salt solution (HBSS) with antibiotics. […]
# [2] = In vivo metabolic stability test by live imaging; parameters: species or system mouse; conditions: Hep3B CDX Balb/c nude mice, intravenous Cy5‐ACP52C 17 mg kg^−1, live imaging fluorescence over 24 h
# Source text: (1 picture or pasted object on this page, not shown here)
# Scale bar represents 10 μm.
# CP2c = biological target: T1, CP2c (Mus musculus, UniProt Q9ERA0); test: DNA‐IP assay of CP2c DNA binding; type: biochemical; conditions: 0–3 µM peptide, concentration‐dependent
# T1 construct: extracts from iMEL cells (day 2); endogenous in cells; host or cells: nuclear extract of HMBA-induced MEL (iMEL) cells, day 2
# T1 sequence (Q9ERA0 whole entry): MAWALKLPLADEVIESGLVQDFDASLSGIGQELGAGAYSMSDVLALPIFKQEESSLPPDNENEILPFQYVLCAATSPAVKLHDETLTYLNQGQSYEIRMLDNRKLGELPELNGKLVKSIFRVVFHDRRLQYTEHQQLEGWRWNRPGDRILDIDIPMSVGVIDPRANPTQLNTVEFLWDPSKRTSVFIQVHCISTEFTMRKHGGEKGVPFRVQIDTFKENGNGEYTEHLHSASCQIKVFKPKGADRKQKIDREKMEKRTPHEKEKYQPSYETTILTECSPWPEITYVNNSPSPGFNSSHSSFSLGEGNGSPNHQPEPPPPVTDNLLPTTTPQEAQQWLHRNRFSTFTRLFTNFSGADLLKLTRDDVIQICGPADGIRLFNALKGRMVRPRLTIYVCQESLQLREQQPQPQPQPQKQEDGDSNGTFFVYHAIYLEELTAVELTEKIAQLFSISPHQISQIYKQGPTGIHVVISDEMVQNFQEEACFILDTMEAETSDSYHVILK
# Description: DNA‐IP assay was performed essentially as described previously.^[ [14] ^] Each of the oligonucleotides was mixed and annealed in the TEN buffer. For the radio‐labeling of the DNA probe, the annealed DNA was incubated with a mixture of dATP, dGTP, dTTP, [α^32P]‐dCTP, and Klenow enzyme in reaction buffer (5 mM NaCl, 1 mM Tris HCl, 1 mM MgCl2, and 0.1 mM DTT) for 30 min at 25 °C, and stopped by incubation with EDTA (10 mM final) for 20 min at 75 °C. The radio‐labeled DNA probe was purified by applying the reaction mixture to ProbeQuant G‐50 micro columns (GE healthcare, GE28‐9034‐08). Whole extracts prepared from transfecting 293T cells or purified GST fused CP2c proteins (wildtype and point mutants) were incubated with a [α^32P]‐labeled DNA probe in binding buffer (4% glycerol, 10 mM Tris‐HCl, pH 7.4, 1 mM DTT, 1 mM EDTA, and 0.1% NP‐40) for 15 min at room temperature. Then 0–3 µM of peptides (Pep #5, Pep #8, Pep #5‐1, Pep #5‐2, and Pep #5‐2C) were added to the DNA‐protein mixture, and the mixtures were incubated for 15 min at room temperature (peptide sequences are listed in Table S3, Supporting Information). For IP, precleared extracts were incubated overnight at 4 °C with 1 µg of the following primary antibodies (CP2c, CP2b, and PIAS1). […] The radioactivity of the eluted probe was measured by scintillation counting.
# [3] = system: normal cells such as mesenchymal stem cells and embryonic stem cells; test: Cell death in normal cells; type: cell-based, human
# Description: performance of FQI1. Two micromoles of each Pep #5-2C and FQI1 were added to the cell culture for 2 days. Fractions of benzidine-positive stained cells were counted in MEL cells (n > 100 cells/group) treated with HMBA for 2 days. Hba-a2 gene expression at mRNA and protein levels were estimated by RT-qPCR […]
# and WB, respectively. […] ANOVA […]
# similar performance of Pep #5 or Pep #5-2. DNA-pull down assays for the [C4] complex (B) and the CBP […]
# complexes (C). […] Two-tailed […]
# formation by itself, surpassing the performance of FQI1. Co-IP assays for the [C4] complex (D) and the […]
# CBP complexes (E). […] Student’s […]
# than FQI1. G) Cell growth inhibition plots and GI50 values of FQI1 and ACP52C in various cancer cell lines and normal cells over peptide dose. GI50 values estimated from two independent biological replicates. […]
# hESCs were cultured on the Rhodamine -labeled MEF cells. Ten micromoles of each ACP52C and FQI1 were added to the cell culture for 3 days before capturing images of cultures.
Compound,fraction of patient‐derived cancer cells showing sensitivity [1],"systemic metabolic stability in vivo (RL50, time for 50% retention of fluorescence) [2]",inhibition of DNA binding activity of CP2c (CP2c),induction of cell death in normal cells [3]
CC(=O)N[C@@H](CC(N)=O)C(=O)N[C@@H](Cc1ccc(O)cc1)C(=O)N1CCC[C@H]1C(=O)N[C@@H](CCC(N)=O)C(=O)N[C@@H](CCCNC(=N)N)C(=O)N1CCC[C@H]1C(=O)N[C@@H](CS)C(=O)N[C@@H](CCCNC(=N)N)C(=O)NCC(=O)N[C@@H](CC(=O)O)C(=O)N[C@@H](CCCCN)C(=O)NCC(=O)N1CCC[C@H]1C(=O)N[C@@H](CC(=O)O)C(=O)N[C@@H](CS)C(N)=O [ACP52C] (Ac-NYPQRPCRGDKGPDC-NH2),over 85%,≈ 7.8 h,–,–
"CCOc1ccccc1C1CC(=O)Nc2cc3c(cc21)OCO3 (stereo not shown) [FQI1, Factor Quinolinone Inhibitor 1, reference compound]",–,–,proficient inhibition of DNA binding,potential to induce cell death
